Assay results from patent US8796246B2, “9, 10-secopregnane derivative and pharmaceutical” (Nippon Shinyaku Co., Ltd., priority 2006, dated 2014).
pEC50: −log10 of the molar value.

Assays:
[1] = tested on: human acute myelogenous leukemia cell line HL-60; assay: Ability to induce differentiation of HL-60 cells (oxygen radical production after phorbol ester, WST-1); type: cell-based; conditions: 72 hours incubation, then WST-1 and phorbol 12,13-didecanoate for 4 hours, absorbance at 450 nm
Description: It is known that the human acute myelogenous leukemia cell line HL-60is differentiated into neutrophil-like cells by active vitamin D or the like. Thus, the cells after the differentiation begin to express a surface marker such as CD11and CD32and, at the same time, they produce an oxygen radical by stimulation with a phorbol ester or the like. In this test, the above-mentioned property was utilized. As an index of the ability to induce differentiation of the HL-60cells, the amount of the oxygen radical produced by stimulation with a phorbol ester was measured, and the compounds of the invention mentioned in Examples were compared with maxacalcitol with respect to the vitamin D3activity thereof. In use of commercial reagents and kits, if any, the indications attached thereto were referred to.
HL-60cells (supplied from ATCC) were seeded on a 96-well plate at 5×10^3cells/100μL/well and a test compound in two-fold dilution series from 10^−7M was added to the second to the twelfth rows (maximum concentration: the second row). The first row was used for blank. After incubation for 72 hours under a moisturized condition in the presence of 5% CO2 at 37° C. using a CO2 incubator, 10 μL of PBS containing 50 mM WST-1 (manufactured by Takara Bio) and 10 μM phorbol 12,13-didecanoate (manufactured by SIGMA) were added to each well followed by further incubation for 4 hours. Absorbance (reference wavelength: […]) at […] of the WST-1 formazane dye generated by conversion from WST-1 by oxygen radical produced from the differentiated HL-60 cells was measured by a Benchmark microplate reader (manufactured by BioRad). An absorbance meter control software MPM3 (manufactured by BioRad) was used and, from a concentration-absorbance curve, the 50%-maximal effective concentration (hereinafter, referred to as “EC50”) of each was determined by a logistic curve regression.

[2] = Action to increase the urinary excretion of calcium (1), percutaneous administration; type: in vivo, SD male rats; conditions: percutaneous 10 μg/200 μL/kg/day once a day for 4 days
Procedure: The compound of the invention mentioned in Example 1, 36, 43, 47, 48, 55 or 70 or maxacalcitol in ethanol containing 0.5% DMSO was repeatedly subjected to a percutaneous administration (10 μg/200 μL/kg/day) once a day for 4 days onto the back of SD male rats (7 weeks of age). Ethanol containing 0.5% DMSO was administered to a control group. The calcium concentration in urine collected every 24 hours was measured and multiplied by the amount of urine to calculate the urinary excretion of calcium. The calcium excretion in urine shown in Table 3 indicates the accumulated calcium excretion from 0 to 24 hours, from 0 to 48 hours, from 0 to 72 hours, and from 0 to 96 hours.

[3] = Metabolic rate in human liver microsome; type: in vitro ADME; conditions: pooled human liver microsome 1 mg/mL protein, NADPH-regenerating system, 37° C., 2-60 minutes, HPLC
Procedure: The compounds of the invention mentioned in Examples and maxacalcitol were compared with each other with respect to the metabolic rate in human liver microsome.
As to the pooled human liver microsome (HHM-0323), those manufactured by Tissue Transformation Technologies were used. A 0.25 M potassium phosphate buffer (pH 7.4) (200 μL), 5 μL of a 250 μM solution of each compound to be tested in DMSO, 50 μL of an NADPH-regenerating system (where 20 mg of β-NADP^+, 70 mg of glucose-6-phosphate, 40 units of glucose-6-phosphate dehydrogenase and 20 mg of magnesium chloride were dissolved in 1 mL of distilled water) and 220 μL of distilled water were added to a microtube and the mixture was subjected to a preincubation for 5 minutes at 37° C. Reaction was started by an addition of 25 μL of human liver microsome (final concentration of protein: 1 mg/mL). Incubation was performed for 2, 10, 30 or 60 minutes and the reaction was stopped by an addition of 500 μL of acetonitrile. After centrifugation at 13,000 rpm for 5 minutes, each test compound in the supernatant (25 μL) was measured by HPLC under the following conditions.
Inertsil ODS-3 (4.6×150 mm; GL Science) was used as a column. With regard to the mobile phase, a solution A (acetonitrile/0.1% aqueous solution of ammonium acetate=10/90) and a solution B (acetonitrile/0.1% aqueous solution of ammonium acetate=90/10) were used under the linear gradient conditions mentioned in Tables 5 to 7. The column temperature, the flow rate and the wavelength for detection were set at 40° C., 1.0 mL/min. and UV 250 or 270 nm, respectively.
The compound mentioned in Example 38 was analyzed under the condition shown in Table 6; the compounds mentioned in Examples 55, 56, 68, 69, 72 and 73 were under the condition shown in Table 7; and the other compounds were under the condition shown in Table 5.
The compounds described in Examples 40, 43 to 48, 50, 55, 56, 58, 60, 61, 63 and 65 to 73 were analyzed under the condition of UV 250 nm; and the other compounds were under the condition of UV 270 nm.
From the HPLC test results as above, the metabolic rate of the test compound was calculated.

Row | SMILES | pEC50 [1] | Calcium in Urine within 24 hours ([2]; accumulated excretion 0 to 24 hours) | Calcium in Urine within 48 hours ([2]; accumulated excretion 0 to 48 hours) | Calcium in Urine within 72 hours ([2]; accumulated excretion 0 to 72 hours) | Calcium in Urine within 96 hours ([2]; accumulated excretion 0 to 96 hours) | Metabolic Rate [3]
1 | C=C1/C(=C\C=C2/CCC[C@]3(C)C([C@H](C)OC(=O)CCC(C)(O)C(F)(F)F)=CC[C@@H]23)C[C@@H](O)C[C@@H]1O (single isomer, unassigned) [Compound of Example 70, (1S,3R,20S)-20-[(4R) or (4S)-5,5,5-trifluoro-4-hydroxy-4-methylpentanoyloxy]-9,10-secopregna-5Z,7E,10(19),16-tetraene-1,3-diol] | 9.89 | 1.4 mg | 1.9 mg | 2.7 mg | 3.7 mg | 60 pmol/min/mg
2 | C=C1C(O)CC(=CC=C2CCCC3(C)C2CCC3C(C)OC(=O)CCC(C)(C)O)CC1O [Compound of Example 41, (1R,3R,20S)-2-methylene-19-nor-20-(4-hydroxy-4-methylpentanoyloxy)-9,10-secopregna-5Z,7E-diene-1,3-diol] | 9.59 |  |  |  |  | 46 pmol/min/mg
3 | C=C1C(O)CC(=CC=C2CCCC3(C)C2CCC3C(C)OC(=O)CCC(C)(O)C(F)(F)F)CC1O [Compound of Example 44, (1R,3R,20S)-2-methylene-19-nor-20-(5,5,5-trifluoro-4-hydroxy-4-methylpentanoyloxy)-9,10-secopregna-5Z,7E-diene-1,3-diol] | 9.60 |  |  |  |  | 95 pmol/min/mg
4 | C=C1C(O)CC(=CC=C2CCCC3(C)C2CCC3C(C)OC(=O)C=CC(O)(CC)CC)CC1O [Compound of Example 45, (1R,3R,20S)-2-methylene-19-nor-20-[(2E)-4-ethyl-4-hydroxyhex-2-enoyloxy]-9,10-secopregna-5Z,7E-diene-1,3-diol] | 9.51 |  |  |  |  | 40 pmol/min/mg
5 | CC(OC(=O)CCC(C)(C)O)C1=CCC2C(=CC=C3CC(O)CC(O)C3)CCCC12C [Compound of Example 46, (1R,3R,20S)-19-nor-20-(4-hydroxy-4-methylpentanoyloxy)-9,10-secopregna-5Z,7E,16-triene-1,3-diol] | 8.85 |  |  |  |  | 45 pmol/min/mg
6 | CC(OC(=O)CCC(C)(C)O)C1CCC2C(=CC=C3CC(O)C(C)C(O)C3)CCCC21C [Compound of Example 50, (1R,2α,3R,20S)-2-methyl-19-nor-20-(4-hydroxy-4-methylpentanoyloxy)-9,10-secopregna-5Z,7E-diene-1,3-diol] | 10.37 |  |  |  |  | 45 pmol/min/mg
7 | C=C1C(O)CC(=CC=C2CCCC3(C)C(C(C)OC(=O)CCC(C)(O)C(F)(F)F)=CCC23)CC1O [Compound of Example 56, (1R,3R,20S)-19-nor-2-methylene-20-[(4R)-5,5,5-trifluoro-4-hydroxy-4-methylpentanoyloxy]-9,10-secopregna-5Z,7E,16-triene-1,3-diol] | 9.33 |  |  |  |  | 102 pmol/min/mg
8 | CC1[C@H](O)CC(=C/C=C2\CCC[C@]3(C)[C@@H]([C@H](C)OC(=O)CCCC(C)(C)O)CC[C@@H]23)C[C@H]1O (stereo partly drawn) [Compound of Example 58, (1R,2α,3R,20S)-2-methyl-19-nor-20-(5-hydroxy-5-methylhexanoyloxy)-9,10-secopregna-5Z,7E-diene-1,3-diol] | 9.28 |  |  |  |  | 29 pmol/min/mg
9 | CC(OC(=O)CCC(C)(O)C(F)(F)F)C1CCC2C(=CC=C3CC(O)C(C)C(O)C3)CCCC21C [Compound of Example 60, (1R,2α,3R,20S)-2-methyl-19-nor-20-(5,5,5-trifluoro-4-hydroxy-4-methylpentanoyloxy)-9,10-secopregna-5Z,7E-diene-1,3-diol] | 10.28 |  |  |  |  | 78 pmol/min/mg
10 | CC(OC(=O)CCC(C)(C)O)C1=CCC2C(=CC=C3CC(O)C(C)C(O)C3)CCCC12C [Compound of Example 62, (1R,2α,3R,20S)-19-nor-2-methyl-20-(4-hydroxy-4-methylpentanoyloxy)-9,10-secopregna-5Z,7E,16-triene-1,3-diol] | 9.64 |  |  |  |  | 24 pmol/min/mg
11 | CCC(O)(C=CC(=O)OC(C)C1CCC2C(=CC=C3CC(O)C(C)C(O)C3)CCCC21C)CC [Compound of Example 65, (1R,2α,3R,20S)-2-methyl-19-nor-20-[(2E)-4-ethyl-4-hydroxyhex-2-enoyloxy]-9,10-secopregna-5Z,7E-diene-1,3-diol] | 9.54 |  |  |  |  | 29 pmol/min/mg
12 | CCC(O)(CC)CCC(=O)OC(C)C1CCC2C(=CC=C3CC(O)C(C)C(O)C3)CCCC21C [Compound of Example 67, (1R,2α,3R,20S) -2-methyl-19-nor-20-[4-ethyl-4-hydroxyhexanoyloxy]-9,10-secopregna-5Z,7E-diene-1,3-diol] | 9.82 |  |  |  |  | 38 pmol/min/mg
13 | CC(OC(=O)CCC(C)(O)C(F)(F)F)C1=CCC2C(=CC=C3CC(O)CC(O)C3)CCCC12C [Compound of Example 68, (1R,3R,20S)-19-nor-20-[(4S)-5,5,5-trifluoro-4-hydroxy-4-methylpentanoyloxy]-9,10-secopregna-5Z,7E,16-triene-1,3-diol] | 9.64 |  |  |  |  | 126 pmol/min/mg
14 | C[C@H](OC(=O)CC[C@@](C)(O)C(F)(F)F)C1=CC[C@H]2/C(=C/C=C3C[C@@H](O)C[C@H](O)C3)CCC[C@]12C [Compound of Example 69, (1R,3R,20S)-19-nor-20-[(4R)-5,5,5-trifluoro-4-hydroxy-4-methylpentanoyloxy]-9,10-secopregna-5Z,7E,16-triene-1,3-diol] | 9.11 |  |  |  |  | 86 pmol/min/mg
15 | CC(OC(=O)CCC(C)(O)C(F)(F)F)C1CCC2C(=CC=C3CC(O)CC(O)C3)CCCC21C [Compound of Example 72, (1R,3R,20S)-19-nor-20-[(4S)-5,5,5-trifluoro-4-hydroxy-4-methylpentanoyloxy]-9,10-secopregna-5Z,7E-diene-1,3-diol] | 9.77 |  |  |  |  | 111 pmol/min/mg
16 | CC(OC(=O)CCC(C)(O)C(F)(F)F)C1CCC2C(=CC=C3CC(O)CC(O)C3)CCCC21C [Compound of Example 73, (1R,3R,20S)-19-nor-20-[(4R)-5,5,5-trifluoro-4-hydroxy-4-methylpentanoyloxy]-9,10-secopregna-5Z,7E-diene-1,3-diol] | 8.89 |  |  |  |  | 63 pmol/min/mg
